We go through two molecules from the NIST ThermoML archive (doi:10.1016/j.fluid.2009.10.009).

Each structure is given as a SMILES string. ± gives the expanded uncertainty stated by the source.

The conditions of the data set: Crystal.

As for `CC(C)CCC[C@@H](C)[C@H]1CC[C@H]2[C@@H]3CC=C4C[C@@H](O)CC[C@]4(C)[C@H]3CC[C@]12C` [.DELTA.5-cholesten-3β-ol], the Normal melting temperature (visual observation) was 148.00 ± 0.39 °C.
In the case of `CCCCCCCCCCO` [decan-1-ol], the Normal melting temperature (Visual) came to 7.00 °C.
